IC50 data for 27 compounds are collected here from patent US20050227994A1, “Decomposition inhibitor for extracellular matrix of cartilage” (Shionogi & Co., Ltd., priority 2002, published 2005).

pIC50: −log10 of the molar value.

In this test the target is T1, MMP-13 (Homo sapiens, UniProt P45452).
T1 construct: catalytic domain (^104Tyr˜^267Gly) was amplified with RT-PCR; His-tag; enterokinase digestion-site; made in house
The test is described as follows: Assay for inhibitory activities on MMP-13. It is filed as biochemical. Conditions: catalytic domain, substrate MOCAc-Pro-Leu-Gly-Leu-A2Pr(DNP)-Ala-Arg-NH2; read-out: MMP-13 (IC50μM). As to the method:
In regard to MMP-13, mRNA was prepared from carcinoma cell SW1353 derived from human cartilage stimulate by IL-1, TNF and catalytic domain (^[…]) was amplified with RT-PCR. This was cloned in Escherichia. coli expression vector […] inserted with His-tag sequence and enterokinase digestion-site, induced and expressed by IPTG (Isopropyl-β-D-thiogalactopyranoside) and expressed in a insoluble fraction. Isolation of MMP-13 from an insoluble fraction was carried out by dissolving in modifier (6M urea) by a usual method and purification with metal chelate chromatography (Ni […] Sepharose). […] The enzymatic activity on MMP was analyzed by the method described in “C. Graham Knight, Frances Willenbrock and Gillian Murphy: A novel coumarin-labelled peptide for sensitive continuous assays of the matrix metalloproteinases: […] The substrate: MOCAc-[…] was purchased from Peptide Institute, Inc., Osaka, Japan.
For the compound `CC(C)C[C@@H](NS(=O)(=O)c1ccc(C#Cc2ccc3ccccc3c2)s1)C(=O)O` [Compound H-10], the pIC50 was 5.86.

In the case of `CNc1ccc(-c2ccc(S(=O)(=O)NC(C(=O)O)C(C)C)s2)cc1` (stereo not drawn) [Compound F-21], the pIC50 was 5.90.

With `O=C(O)[C@@H](Cc1ccccc1)NS(=O)(=O)c1ccc(-c2nnn(-c3ccc(Br)cc3)n2)cc1` [Compound I-1], the pIC50 was 7.44.

As to `O=C(O)[C@H](Cc1ccccc1)NS(=O)(=O)c1ccc(-c2noc(-c3ccc4cc(Br)ccc4c3)n2)cc1` [Compound C-9], the pIC50 is below 5.00.

On to `CSCC[C@@H](NS(=O)(=O)c1ccc(-c2ncc(-c3ccc4c(c3)OCO4)s2)cc1)C(=O)O` [Compound A-19], for which the pIC50 is 8.04.

Consider `CC(C)[C@@H](NS(=O)(=O)c1ccc(C#Cc2ccc(O)cc2)cc1)C(=O)O` [Compound G-3], for which the pIC50 is below 5.00.

As for `O=C(O)[C@H](Cc1c[nH]c2ccccc12)NS(=O)(=O)c1ccc(C#Cc2ccc3ccccc3c2)cc1` [Compound G-6], the pIC50 is 6.05.

As for `COc1ccc(-c2cnc(-c3ccc(S(=O)(=O)N[C@H](CCSC)C(=O)O)cc3)s2)cc1` [Compound A-3], the pIC50 was 8.64.

In the case of `CC(C)C(NS(=O)(=O)c1ccc(-c2ccccc2)cc1)C(=O)O` (stereo not drawn) [Compound E-1], the pIC50 was 6.40.

Take `O=C(O)[C@@H](Cc1ccc(-c2ccccc2)cc1)NS(=O)(=O)c1ccc(-c2ccccc2)cc1` [Compound E-23]: the pIC50 was 5.97.

Regarding `C[C@@H](NS(=O)(=O)c1ccc(-c2ncc(-c3ccc4c(c3)OCO4)s2)cc1)C(=O)O` [Compound A-17], the pIC50 was 8.19.

On to `CSc1ccc(-c2ccc(S(=O)(=O)N[C@H](CC(=O)O)C(=O)O)cc2)cc1` [Compound E-9], for which the pIC50 is 7.88.

Consider `O=C(O)[C@@H](Cc1ccccc1)NS(=O)(=O)c1ccc(C#CC2=CCCCC2)s1` [Compound H-14], for which the pIC50 was 6.82.

On to `O=C(O)[C@@H](Cc1ccccc1)NS(=O)(=O)c1ccc(C#Cc2cccc3ccccc23)s1` [Compound H-7], for which the pIC50 is below 5.00.

On to `C[C@@H](NS(=O)(=O)c1ccc(-c2ccc(-c3ccc4ccccc4c3)cc2)cc1)C(=O)O` [Compound E-28], for which the pIC50 is 7.92.

As to `CSc1ccc(-c2nnn(-c3ccc(S(=O)(=O)N[C@H](Cc4ccccc4)C(=O)O)cc3)n2)cc1` [Compound J-1], the pIC50 is 7.31.

For `CC(C)[C@@H](NS(=O)(=O)c1ccc(-c2ccc(-c3ccc4ccccc4c3)cc2)cc1)C(=O)O` [Compound E-22], the pIC50 is 7.86.

With `CCc1ccc(-c2ccc(S(=O)(=O)NC(C(=O)O)C(C)C)cc2)cc1` (stereo not drawn) [Compound E-18], the pIC50 was 7.69.

As to `CSCC[C@@H](NS(=O)(=O)c1ccc(-c2ccc(-c3ccc(C)cc3)s2)cc1)C(=O)O` [Compound K-4], the pIC50 is 7.03.

In the case of `Cc1ccc(-c2ccc(-c3ccc(S(=O)(=O)N[C@H](C)C(=O)O)cc3)s2)cc1` [Compound K-3], the pIC50 was 7.02.

Turning to `Cc1ccc(-c2ccc(-c3ccc(S(=O)(=O)N[C@H](CC(C)C)C(=O)O)cc3)s2)cc1` [Compound K-6], the pIC50 is 6.65.

For the compound `O=C(O)[C@H]1[C@@H]2CC[C@@H](C2)[C@@H]1NS(=O)(=O)c1ccc(-c2ccon2)s1` [Compound O-1], the pIC50 is below 5.00.

As for `CC(C)C[C@@H](NS(=O)(=O)c1ccc(-c2ccc(N3CCCCC3)cc2)s1)C(=O)O` [Compound F-16], the pIC50 is 6.60.

Consider `Cc1ccc(-c2ccc(-c3ccc(S(=O)(=O)NCC(=O)O)s3)s2)cc1` [Compound L-4], for which the pIC50 is 6.55.

In the case of `O=C(O)[C@@H](Cc1ccccc1)NS(=O)(=O)c1ccc(-c2ncc(-c3ccc(Cl)cc3)o2)cc1` [Compound B-3], the pIC50 is 7.35.

With `Cc1ccc(-c2ccc(S(=O)(=O)N[C@H](Cc3c[nH]c4ccccc34)C(=O)O)s2)cc1` [Compound F-10], the pIC50 is 6.68.

Take `CCc1ccc(-c2nc(-c3ccc(S(=O)(=O)N[C@H](Cc4ccccc4)C(=O)O)cc3)no2)cc1` [Compound C-2]: the pIC50 was 7.57.
